Literature values, collected in patent publication US6428819B1, “Plant extracts for the preparation of pharmaceutical compositions for the treatment of hepatitis” (priority 1996, dated 2002).

Test system: hepatitis C
Conditions: literature reports

Molecule	treatment outcome in chronic hepatitis
Nc1nc2c(ncn2COCCO)c(=O)[nH]1 [Acyclovir]	unsatisfactory
IFN-gamma: interferon gamma with known antiviral activity (protein, UniProt P01579 24-161, looked up) Interferon gamma: QDPYVKEAENLKKYFNAGHSDVADNGTLFLGILKNWKEESDRKIMQSQIVSFYFKLFKNFKDDQSIQKSVETIKEDMNVKFFNSNKKKRDDFEKLTNYSVTDLNVQRKAIHELIQVMAELSPAAKTGKRKRSQMLFRG	ineffective
